Measurements: PMC7284870, “Antimicrobial Peptides from Rat-Tailed Maggots of the Drone Fly Eristalis tenax Show Potent Activity against Multidrug-Resistant Gram-Negative Bacteria” (Microorganisms, 2020)
≈ marks a conversion by molar mass, not a printed value. Read-outs that look alike come from different tables or passages of the source. No end group written: not given here.

Columns and labels:
E. coli RKI 131/08 = test: microbe, parasite or virus in culture; type: cell-based, Escherichia coli
Protocol: (§1) The strains that were used in this study (Table 2 and Table S1) were cultivated at 37 °C in cation-adjusted Mueller–Hinton broth (CAMB) in Erlenmeyer flasks, or on the same medium with agar in Petri dishes. Exceptionally, Mycobacterium smegmatis was cultivated at 37 °C in brain heart infusion (BHI) medium that was supplemented with 1% Tween-80 in Erlenmeyer flasks, or on the same medium lacking detergent but with agar in Petri dishes. Strains listed with Robert Koch Institute (RKI) strain numbers are clinical isolates from the RKI strain collection originating from hospitalized patients in Germany. The remaining strains originated from the Sanofi strain collection and they were originally purchased from the American Type Culture Collection or the German Collection of Microorganisms and Cell Cultures. Meropenem/colistin-resistant strains were maintained, as described above, with the appropriate antibiotic added at levels below the minimal inhibitory concentration (MIC).
(§2) The MIC values were determined in 384-well microtiter plates with an assay volume of 20 µL. Immediately before each assay, the cultures of test organisms (bacteria grown for 18 h, Candida albicans and M. smegmatis grown for 48 h) were diluted with the appropriate medium to a density of 1 × 10^6 cells/mL (C. albicans), 1 × 10^5 cells/mL (M. smegmatis) or 5 × 10^5 cells per mL (other species). […] We transferred 2-µL aliquots from this dilution series to new 384-well microtiter plates while using a CyBio-Well 384-channel automated pipettor (Analytic Jena, Jena, Germany) and added 18 µL of the diluted suspension of each test species using a Viafill reagent dispenser (Integra), thus reducing the final peptide concentration 10-fold to the range 1024–0.03125 µg/mL. […] The growth of M. smegmatis was measured using the BacTiter-Glo luminescence test system (Promega, Madison, WI, USA). The growth of the other species was determined by visual inspection of the microtiter plate and turbidimetry based on the optical density at 600 nm (OD600). The MIC was defined as the peptide concentration at which no bacterial growth was observed. We supplemented the test medium with either 150 mM NaCl or 1.25 mM CaCl2 to represent monovalent and divalent cations to simulate physiological conditions.

K. pneumoniae RKI 93/10 = test: microbe, parasite or virus in culture; type: cell-based, Klebsiella pneumoniae
Protocol: as §1, §2

[1] = test system: Acinetobacter baumannii ATCC 19606; type: cell-based
Procedure, shortened: (§3)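 Broth microdilution in cation-adjusted Mueller–Hinton broth, inoculum 5 × 10^5 cells/mL from 18 h cultures; final peptide range 1024–0.03125 µg/mL, medium supplemented with 150 mM NaCl or 1.25 mM CaCl2. Growth scored visually and by OD600; MIC = lowest concentration without growth.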

Escherichia coli D31 = type: cell-based
Procedure, shortened: as §3

[2] = test system: Klebsiella pneumoniae DSM 30104; type: cell-based
Procedure, shortened: as §3

[3] = test system: Pseudomonas aeruginosa ATCC 27853; type: cell-based
Procedure, shortened: as §3

[4] = test system: Staphylococcus aureus ATCC 25923; type: cell-based
Procedure, shortened: as §3

HepG2 cells = test: Cytotoxicity (ATP quantification and neutral red uptake)
Protocol: The cytotoxicity of the AMPs was determined in 96-well microtiter plates with an assay volume of 200 µL. The peptides were dissolved in PBS and a 1:2 dilution series in DMEM-F12 medium (supplemented with 1% nonessential amino acids, 1% sodium pyruvate, and 5% heat-inactivated fetal calf serum) was prepared in nine steps to produce test concentrations of 400, 200, 100, […], 12.5, 6.25, 3.13, and 1.56 μM (1655–6.46 µg/mL for EtCec1-a, 1713–6.68 µg/mL for EtCec2-a, 1622–6.33 µg/mL for EtCec3-a, 2661–10.38 µg/mL for EtDip). Stocks of the mycoplasma-free HepG2 cell line HB-8065 (ATCC) stored in liquid nitrogen were seeded at a density of 20,000 cells/well into 96-well microplates in 100 μL DMEM-F12 supplemented as above. After incubation overnight at 37 ± 1 °C in a 5% CO2 atmosphere, 100 μL of the test solution was added per well in six replicates. Ketoconazole was used as a positive control and PBS as a negative control. The plates were incubated for 24 h, as above, and the cell viability was assessed using the luminescent CellTiter-Glo ATP monitoring kit (Promega) to determine the quantity of ATP.
HepG2 cells and peptides were prepared as described above, and cell viability was assessed based on the ability of lysosomes to store the dye neutral red (Sigma–Aldrich, ST. Louis, MO, USA). The cells were incubated for 3 h with a neutral red solution, washed twice, and lysed. After complete lysis, the quantity of neutral red was determined by measuring the absorption at 540 nm while using a Tecan Genios Pro plate reader.

[5] = biological target: human ERG (hERG) potassium channel (Homo sapiens, UniProt Q12809); test: cell-based
Protocol: The interaction of the peptides with the human ERG (hERG) potassium channel was analyzed using the automated patch-clamp method. Chinese hamster ovary (CHO) hERG Duo cells constitutively expressing hERG (B’SYS) were diluted to 8 × 10^6 cells/mL in Ex-Cell CHO medium (Sigma–Aldrich) containing 25 mM HEPES, 100 U/mL penicillin-streptomycin, and 0.004% soybean trypsin inhibitor. The peptides were diluted from a stock concentration of 10 mM in DMSO to final concentrations of 0.12, 0.37, 1.1, 3.3, 10, and 30 μM (0.5–124 µg/mL for […], 0.51–128 µg/mL for EtCec2-a, 0.49–122 µg/mL for EtCec3-a, 0.8–200 µg/mL for EtDip) in extracellular medium (150 mM NaCl, 4 mM KCl, 2 mM CaCl2, 1 mM MgCl2, 10 mM HEPES, 10 mM glucose) containing 0.06% Pluronic F-68 and 0.3% residual DMSO. The response of hERG to each peptide was assessed while using a QPatch HTX station and QPlates (Sophion/Biolin Scientific, Ballerup, Denmark) by recording the tail current following channel repolarization. Half-maximal inhibitory concentrations (IC50) were determined from a series of six concentrations applied to the cells in ascending order. Terfenadine citrate was used as a positive control and extracellular medium as a negative control.

[6] = test system: Enterobacter cloacae RKI 146/09; test: microbe, parasite or virus in culture; type: cell-based
Protocol: as §1, §2

[7] = test system: Klebsiella oxytoca RKI 52/07; type: cell-based
Procedure, shortened: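 Broth microdilution in cation-adjusted Mueller–Hinton broth at 37 °C, with 18 h cultures diluted to 5 × 10^5 cells/mL and final peptide concentrations of 1024–0.03125 µg/mL. Growth was scored visually and by OD600. MIC is the lowest concentration with no growth; medium was optionally supplemented with 150 mM NaCl or 1.25 mM CaCl2.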

[8] = CAMB + 0.075 µg/mL colistin (Col), n=3
[9] = HepG2, 24 h, cell viability >80%
[10] = CAMB adjusted to 150 mM NaCl, n=3

Chain of human ERG (hERG) potassium channel (Q12809 whole entry): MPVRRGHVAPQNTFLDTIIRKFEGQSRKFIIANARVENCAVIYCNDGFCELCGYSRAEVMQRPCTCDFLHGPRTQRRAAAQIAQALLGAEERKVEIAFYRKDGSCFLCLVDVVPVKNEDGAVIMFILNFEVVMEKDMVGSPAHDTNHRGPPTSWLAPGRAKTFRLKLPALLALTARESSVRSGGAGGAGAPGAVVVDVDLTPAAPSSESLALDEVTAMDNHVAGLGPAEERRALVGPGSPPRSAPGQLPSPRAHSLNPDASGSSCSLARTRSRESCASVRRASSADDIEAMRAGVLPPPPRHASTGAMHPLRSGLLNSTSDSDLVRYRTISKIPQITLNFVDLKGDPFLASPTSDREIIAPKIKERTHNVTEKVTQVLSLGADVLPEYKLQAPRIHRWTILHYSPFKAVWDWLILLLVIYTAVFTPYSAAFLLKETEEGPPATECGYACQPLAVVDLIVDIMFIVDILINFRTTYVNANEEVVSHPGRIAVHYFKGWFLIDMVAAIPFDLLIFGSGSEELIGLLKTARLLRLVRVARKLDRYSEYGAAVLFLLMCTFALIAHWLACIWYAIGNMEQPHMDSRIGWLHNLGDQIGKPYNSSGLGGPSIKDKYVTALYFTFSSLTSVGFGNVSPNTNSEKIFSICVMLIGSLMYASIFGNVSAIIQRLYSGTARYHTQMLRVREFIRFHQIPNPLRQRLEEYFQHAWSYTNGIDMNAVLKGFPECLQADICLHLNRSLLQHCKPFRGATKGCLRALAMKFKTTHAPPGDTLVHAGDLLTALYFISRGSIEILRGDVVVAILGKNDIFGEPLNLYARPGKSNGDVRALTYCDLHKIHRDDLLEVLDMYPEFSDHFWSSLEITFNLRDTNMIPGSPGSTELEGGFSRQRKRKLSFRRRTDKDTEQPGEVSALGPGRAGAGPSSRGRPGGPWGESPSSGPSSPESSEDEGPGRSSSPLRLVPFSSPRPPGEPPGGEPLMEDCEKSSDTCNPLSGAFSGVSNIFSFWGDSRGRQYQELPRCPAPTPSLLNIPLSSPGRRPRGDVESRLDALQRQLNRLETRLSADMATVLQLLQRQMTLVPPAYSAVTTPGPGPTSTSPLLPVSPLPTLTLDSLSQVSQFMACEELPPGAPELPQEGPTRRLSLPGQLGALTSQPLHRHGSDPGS

| Molecule | IC50 [5] | MIC (E. coli RKI 131/08; [8]) | MIC (K. pneumoniae RKI 93/10; [8]) | MIC [6, 8] | MIC [1, 8] | MIC ([1]; CAMB, 18 h, 37 °C, n = 4) | MIC (Escherichia coli D31; CAMB, 18 h, 37 °C, n = 4) | MIC [7, 8] | MIC ([7]; Table 5, CAMB, n=3) | MIC [2, 8] | MIC ([2]; CAMB, 18 h, 37 °C, n = 4) | MIC ([3]; CAMB, 18 h, 37 °C, n = 4) | MIC ([4]; CAMB, 18 h, 37 °C, n = 4) | NOEC (HepG2 cells; [9]) | further results |
| --- | --- | --- | --- | --- | --- | --- | --- | --- | --- | --- | --- | --- | --- | --- | --- |
| GFLKKIGKKLEGAVQRTRDATIQTIAVAQAAANVAATAKQ-NH2 [EtCec1-NH2] | > 30 µM |  |  |  |  |  |  |  |  |  |  |  |  |  | MIC (E. coli RKI 131/08; RKI 131/08, 18 h): 4 µg/mL; MIC (K. pneumoniae RKI 93/10; RKI 93/10, 18 h): 8 µg/mL; MIC ([1]; ATCC 19606, 18 h): 8 µg/mL; MIC (Escherichia coli D31; D31, 18 h): 4 µg/mL; MIC ([2]; DSM 30104, 18 h): 4 µg/mL; MIC ([3]; ATCC 27853, 18 h): 32 µg/mL; MIC ([4]; ATCC 25923, 18 h): >1024 µg/mL; NOEC (HepG2 cells): greater than 1655 µg/mL |
| QFNMQGGGSPRQGFDVNANARFPIWQSQNARNSVHGTASYAQHLGGPYGNSRPNFGGGLQFT [EtDip] |  | 4 µg/mL | >1024 µg/mL | >1024 µg/mL | >1024 µg/mL | >1024 µg/mL | >1024 µg/mL | 4 µg/mL | >1024 µg/mL | 4 µg/mL | >1024 µg/mL | >1024 µg/mL | >1024 µg/mL | > 1330 µg/mL | MIC (E. coli RKI 131/08; Table 5, CAMB, n=3): >1024 µg/mL; MIC (K. pneumoniae RKI 93/10; Table 5, CAMB, n=3): >1024 µg/mL; MIC ([6]; Table 5, CAMB, n=3): >1024 µg/mL; MIC ([1]; Table 5, CAMB, n=3): >1024 µg/mL; MIC ([2]; Table 5, CAMB, n=3): >1024 µg/mL; IC50 hERG ([5]; CHO hERG Duo cells, QPatch, tail current, six concentrations): > 200 µg/mL |
| GWLRDFGKRIERTGQNIRDATIQTIGIAQEAANVAATLK-NH2 [EtCec2-NH2] | > 29.9 µM | 2 µg/mL | 8 µg/mL | 32 µg/mL | 8 µg/mL | 8 µg/mL | 4 µg/mL | 2 µg/mL | 32 µg/mL | 2 µg/mL | 16 µg/mL | >1024 µg/mL | >1024 µg/mL | 535 µg/mL | MIC (E. coli RKI 131/08; [10]): 16 µg/mL; MIC (E. coli RKI 131/08; Table 4, CAMB, n=3): 16 µg/mL; MIC (K. pneumoniae RKI 93/10; [10]): 256 µg/mL; MIC (K. pneumoniae RKI 93/10; Table 4, CAMB, n=3): 64 µg/mL; MIC [6, 10]: 64 µg/mL; MIC ([6]; Table 4, CAMB, n=3): 32 µg/mL; MIC [1, 10]: 8 µg/mL; MIC ([1]; Table 4, CAMB, n=3): 8 µg/mL; MIC [2, 10]: 32 µg/mL; MIC ([2]; Table 4, CAMB, n=3): 16 µg/mL |
| C[C@@H](O)[C@H]1C(=O)N2C(C(=O)O)=C(S[C@@H]3CN[C@H](C(=O)N(C)C)C3)[C@H](C)[C@H]12 [MEM, meropenem] |  |  |  |  |  |  |  |  |  |  |  |  |  |  | MIC (E. coli RKI 131/08; Escherichia coli, RKI131/08): 32 µg/mL (≈ 83.4 µM); MIC (K. pneumoniae RKI 93/10; Klebsiella pneumoniae, RKI93/10): 64 µg/mL (≈ 167 µM); MIC ([6]; Enterobacter cloacae, RKI146/09): 16 µg/mL (≈ 41.7 µM); MIC ([7]; Table S1, RKI 52/07): 32 µg/mL (≈ 83.4 µM) |
